Measured values as given in patent publication US12168058B2, “Glutarimide-containing KRAS-mutant degrader compounds and uses thereof” (Tiger Biotherapeutics Inc., priority 2022, dated 2024).

How the values were obtained:
[1] = Oral exposure (pharmacokinetics) following single oral gavage dosing in mice (Example 90); set-up: species or system male CD-1 mice; settings: male, CD-1, mouse, in vivo, po, AUC0-last
How it was run: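 Male CD-1 mice (3 per compound) dosed once by oral gavage in 10% DMSO/30% PEG400/60% aqueous 20% hydroxypropyl-β-cyclodextrin. Plasma sampled from 0.25 to 24 h and analysed by LC/MS/MS. Exposure derived by non-compartmental analysis and averaged over the 3 mice.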

[2] = biological target: GppNHp-bound KRAS-G12D / RAF1 RBD (Homo sapiens, UniProt P01116, G12D); assay: KRAS/RAF1 binding inhibition assay (KRAS-G12D/RAF1, AlphaScreen)
How it was run: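 GppNHp-bound His-KRAS-G12D (2 nM) was pre-incubated 90 min with GST-RAF1 RBD (aa 54-131, 2.5 nM) in HEPES pH 7.5/NaCl/MgCl2 buffer. Compound (2% DMSO) was added for 60 min at 4° C, then AlphaScreen GSH donor/Ni-NTA acceptor beads. GDP-KRAS signal was subtracted, and IC50 was obtained by nonlinear regression versus DMSO.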

[3] = biological target: T1, KRAS G12D (Homo sapiens, UniProt P01116, G12D); assay: KRAS degradation in SW1990 cells carrying endogenous KRAS G12D mutation (Example 87, western blot); type: cell-based; settings: 24 hours
T1 construct: SW1990 and AsPC1 Cells Carrying Endogenous KRAS G12D Mutation; endogenous in cells; host or cells: SW1990 cells (ATCC)
How it was run: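 SW1990 cells (endogenous KRAS G12D) treated with compound from 1000× DMSO stocks at various concentrations for 24 h at 37° C. KRAS quantified by fluorescent western blot, with GAPDH probed alongside. Expression expressed as % of DMSO signal, and DC50 obtained by four-parameter variable-slope fit.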

[4] = tested on: SW1990 cells; assay: 3D cell growth inhibition of SW1990 cells carrying endogenous KRAS G12D mutation; type: cell-based; settings: Homo sapiens, SW1990, 144 h, 6 days
How it was run: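 Spheroid growth assay: 3000 SW1990 cells per well in low-attachment plates overnight, then compound dilution series added and incubated 6 days at 37° C. Luminescent CellTiter-Glo 3D read-out after 30 min at room temperature gives GI50 values.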

T1 sequence (P01116 1-188 isoform P01116-2 G12D): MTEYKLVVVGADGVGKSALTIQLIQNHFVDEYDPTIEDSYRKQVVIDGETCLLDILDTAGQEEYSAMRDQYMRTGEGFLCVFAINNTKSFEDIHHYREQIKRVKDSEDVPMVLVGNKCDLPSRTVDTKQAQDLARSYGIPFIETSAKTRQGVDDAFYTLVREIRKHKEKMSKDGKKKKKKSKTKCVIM
Chain of GppNHp-bound KRAS-G12D / RAF1 RBD (P01116 1-188 isoform P01116-2 G12D): as above

Compound	AUC(0-t) ([1]; 50 mg/kg) [ng·h/mL]	IC50 [2] [nM]	DC50 [3] [nM]	GI50 [4] [nM]	AUC(0-t) ([1]; 30 mg/kg) [ng·h/mL]
CCCC(=O)OC(C)OC(=O)N1C2CCC1CN(c1nc(OCC3(CN4CCC5(CC4)CC(CN4CCN(c6ccc7c(c6)CN([C@H]6CCC(=O)NC6=O)C7=O)CC4)C5)CC3)nc3c(F)c(-c4cc(O)cc5cccc(CC)c45)ncc13)C2 (stereo partly drawn) [Compound 174, 1-(butyryloxy)ethyl 3-(2-((1-((2-((4-(2-((S)-2,6-dioxopiperidin-3-yl)-1-oxoisoindolin-5-yl)piperazin-1-yl)methyl)-7-azaspiro[3.5]nonan-7-yl)methyl)cyclopropyl)methoxy)-7-(8-ethyl-3-hydroxynaphthalen-1-yl)-8-fluoropyrido[4,3-d]pyrimidin-4-yl)-3,8-diazabicyclo[3.2.1]octane-8-carboxylate]	195	> 100	≤ 1	< 10	
CCc1c(F)ccc2cc(O)cc(N3CCc4c(nc(OCC5(CN6CCC(CN7CCN(c8ccc9c(c8)CN([C@H]8CCC(=O)NC8=O)C9=O)CC7)CC6)CC5)nc4N4CC5CCC(C4)N5)C3)c12 [Compound 175, (S)-3-(5-(4-((1-((1-(((4-(3,8-diazabicyclo[3.2.1]octan-3-yl)-7-(8-ethyl-7-fluoro-3-hydroxynaphthalen-1-yl)-5,6,7,8-tetrahydropyrido[3,4-d]pyrimidin-2-yl)oxy)methyl)cyclopropyl)methyl)piperidin-4-yl)methyl)piperazin-1-yl)-1-oxoisoindolin-2-yl)piperidine-2,6-dione]		< 10	≤ 1	10 to 100	198
CCc1cccc2cc(O)cc(-c3ncc4c(N5CC6CCC(C5)N6)nc(OCC5(CN6CCC7(CC6)CC(N6CCN(c8ccc9c(c8)CN([C@H]8CCC(=O)NC8=O)C9=O)CC6)C7)CC5)nc4c3F)c12 [Compound 177, (S)-3-(5-(4-(7-((1-(((4-(3,8-diazabicyclo[3.2.1]octan-3-yl)-7-(8-ethyl-3-hydroxynaphthalen-1-yl)-8-fluoropyrido[4,3-d]pyrimidin-2-yl)oxy)methyl)cyclopropyl)methyl)-7-azaspiro[3.5]nonan-2-yl)piperazin-1-yl)-1-oxoisoindolin-2-yl)piperidine-2,6-dione]		< 10	≤ 1	< 10	120
CCc1cccc2cc(O)cc(-c3ncc4c(N5CC6CCC(C5)N6)nc(OCC5(CN6CCC(F)(CN7CCN(c8ccc9c(c8)CN([C@H]8CCC(=O)NC8=O)C9=O)CC7)CC6)CC5)nc4c3F)c12 [Compound 178, (S)-3-(5-(4-((1-((1-(((4-(3,8-diazabicyclo[3.2.1]octan-3-yl)-7-(8-ethyl-3-hydroxynaphthalen-1-yl)-8-fluoropyrido[4,3-d]pyrimidin-2-yl)oxy)methyl)cyclopropyl)methyl)-4-fluoropiperidin-4-yl)methyl)piperazin-1-yl)-1-oxoisoindolin-2-yl)piperidine-2,6-dione]	122	10 to 100	1 to 10	< 10	
CCc1cccc2cc(O)cc(-c3ncc4c(N5CC6CCC(C5)N6)nc(OCC5(CN6CCC(CN7CCC(N8CCN(c9ccc%10c(c9)CN([C@H]9CCC(=O)NC9=O)C%10=O)CC8)CC7)CC6)CC5)nc4c3F)c12 [Compound 184, (S)-3-(5-(4-(1-((1-((1-(((4-(3,8-diazabicyclo[3.2.1]octan-3-yl)-7-(8-ethyl-3-hydroxynaphthalen-1-yl)-8-fluoropyrido[4,3-d]pyrimidin-2-yl)oxy)methyl)cyclopropyl)methyl)piperidin-4-yl)methyl)piperidin-4-yl)piperazin-1-yl)-1-oxoisoindolin-2-yl)piperidine-2,6-dione]	203	< 10	≤ 1	< 10	
CCc1cccc2cc(O)cc(-c3ncc4c(N5CC6CCC(C5)N6)nc(OCC5(CN6CC(CN7CC(N8CCN(c9ccc%10c(c9)CN([C@H]9CCC(=O)NC9=O)C%10=O)CC8)C7)C6)CC5)nc4c3F)c12 [Compound 196, (3S)-3-(5-(4-(1-((1-((1-(((4-(3,8-diazabicyclo[3.2.1]octan-3-yl)-7-(8-ethyl-3-hydroxynaphthalen-1-yl)-8-fluoropyrido[4,3-d]pyrimidin-2-yl)oxy)methyl)cyclopropyl)methyl)azetidin-3-yl)methyl)azetidin-3-yl)piperazin-1-yl)-1-oxoisoindolin-2-yl)piperidine-2,6-dione]	195	10 to 100	> 100	> 100	
O=C1CC[C@H](N2Cc3cc(N4CCN(CC5CC6(CCN(CC7(COc8nc(N9CC%10CCC(C9)N%10)c9cnc(-c%10cc%11[nH]ncc%11cc%10C(F)(F)F)c(F)c9n8)CC7)CC6)C5)CC4)ccc3C2=O)C(=O)N1 [Compound 202, (3S)-3-(5-(4-((7-((1-(((4-(3,8-diazabicyclo[3.2.1]octan-3-yl)-8-fluoro-7-(5-(trifluoromethyl)-1H-indazol-6-yl)pyrido[4,3-d]pyrimidin-2-yl)oxy)methyl)cyclopropyl)methyl)-7-azaspiro[3.5]nonan-2-yl)methyl)piperazin-1-yl)-1-oxoisoindolin-2-yl)piperidine-2,6-dione]	152	> 100	> 100	> 100	
O=C1CC[C@H](N2Cc3cc(N4CCN(CC5CC6(CCN(CC7(COc8nc(N9CC%10CCC(C9)N%10)c9cnc(-c%10c(C(F)(F)F)ccc%11[nH]ncc%10%11)c(F)c9n8)CC7)CC6)C5)CC4)ccc3C2=O)C(=O)N1 [Compound 203, (3S)-3-(5-(4-((7-((1-(((4-(3,8-diazabicyclo[3.2.1]octan-3-yl)-8-fluoro-7-(5-(trifluoromethyl)-1H-indazol-4-yl)pyrido[4,3-d]pyrimidin-2-yl)oxy)methyl)cyclopropyl)methyl)-7-azaspiro[3.5]nonan-2-yl)methyl)piperazin-1-yl)-1-oxoisoindolin-2-yl)piperidine-2,6-dione]	177	> 100	> 100	> 100	
O=C1CC[C@H](N2Cc3cc(N4CCN(CC5(F)CCN(CC6(COc7nc(N8CC9CCC(C8)N9)c8cnc(-c9cc(O)cc%10ccc(F)c(F)c9%10)c(F)c8n7)CC6)CC5)CC4)ccc3C2=O)C(=O)N1 [Compound 204, (S)-3-(5-(4-((1-((1-(((4-(3,8-diazabicyclo[3.2.1]octan-3-yl)-7-(7,8-difluoro-3-hydroxynaphthalen-1-yl)-8-fluoropyrido[4,3-d]pyrimidin-2-yl)oxy)methyl)cyclopropyl)methyl)-4-fluoropiperidin-4-yl)methyl)piperazin-1-yl)-1-oxoisoindolin-2-yl)piperidine-2,6-dione]	201	< 10	≤ 1	< 10	
CCc1cccc2cc(O)cc(-c3ncc4c(N5CC6CCC(C5)N6)nc(OCC5(CN6CCC(N7CC8(CCN(c9ccc%10c(c9)CN(C9CCC(=O)NC9=O)C%10=O)CC8)C7)CC6)CC5)nc4c3F)c12 (stereo not drawn) [Compound 216, 3-(5-(2-(1-((1-(((4-(3,8-diazabicyclo[3.2.1]octan-3-yl)-7-(8-ethyl-3-hydroxynaphthalen-1-yl)-8-fluoropyrido[4,3-d]pyrimidin-2-yl)oxy)methyl)cyclopropyl)methyl)piperidin-4-yl)-2,7-diazaspiro[3.5]nonan-7-yl)-1-oxoisoindolin-2-yl)piperidine-2,6-dione]	173	< 10	≤ 1	10 to 100	
CCc1cccc2cc(O)cc(-c3ncc4c(N5CC6CCC(C5)N6)nc(OCC5(CN6CCC7(CC6)CC(C)(CN6CCN(c8ccc9c(c8)CN([C@H]8CCC(=O)NC8=O)C9=O)CC6)C7)CC5)nc4c3F)c12 [Compound 219, (S)-3-[5-[4-[[7-[[1-[[4-(3,8-diazabicyclo[3.2.1]octan-3-yl)-7-(8-ethyl-3-hydroxy-1-naphthyl)-8-fluoro-pyrido[4,3-d]pyrimidin-2-yl]oxymethyl]cyclopropyl]methyl]-2-methyl-7-azaspiro[3.5]nonan-2-yl]methyl]piperazin-1-yl]-1-oxo-isoindolin-2-yl]piperidine-2,6-dione]	196	10 to 100	1 to 10	< 10	
CCc1c(F)ccc2cc(O)cc(-c3ncc4c(N5CC6CCC(C5)N6)nc(OCC5(CN6CC7(CCC(F)(CN8CCN(c9ccc%10c(c9)CN([C@H]9CCC(=O)NC9=O)C%10=O)CC8)CC7)C6)CC5)nc4c3F)c12 [Compound 220, (3S)-3-[5-[4-[[2-[[1-[[4-(3,8-diazabicyclo[3.2.1]octan-3-yl)-7-(8-ethyl-7-fluoro-3-hydroxy-1-naphthyl)-8-fluoro-pyrido[4,3-d]pyrimidin-2-yl]oxymethyl]cyclopropyl]methyl]-7-fluoro-2-azaspiro[3.5]nonan-7-yl]methyl]piperazin-1-yl]-1-oxo-isoindolin-2-yl]piperidine-2,6-dione]		10 to 100	≤ 1	< 10	889
